Experimental data reported in patent US20150064710A1, “METHOD FOR INHIBITING CELL GROWTH, NUCLEIC ACID MOLECULE HAVING RNA INTERFERENCE EFFECT ON NEK10 VARIANT GENE, AND ANTICANCER AGENT” (Nippon Kayaku Kabushiki Kaisha, priority 2011, published 2015).

Legend:
MDA-MB-231 cells = experiment: Growth inhibitory effect of NEK10 siRNA on cancer cells (methylene blue assay); assay type: cell-based; settings: MDA-MB-231 breast cancer cells; 72 hours after siRNA transfection; absorbance at 660 nm; control siRNA treatment group of first experiment = 100
Description: NEK10 siRNA #1 and NEK10 siRNA #2 were confirmed to have growth inhibitory effects on cancer cells. Namely, a study was conducted by methylene blue assay to determine whether cell growth is inhibited by knocking down NEK10 variant gene by transfecting the cells with NEK10 siRNA #1 and NEK10 siRNA #2.
MDA-MB-231 cells were transfected with each siRNA in the same manner as previously described (Confirmation of Expression Inhibitory Effect on NEK10 Variant mRNA) followed by culturing for 72 hours after transfection. After culturing, the medium was removed followed by the addition of 1000 μL of methanol and allowing to stand for 2 minutes at room temperature to fix the cells. After removing the methanol, 1000 μL of dye solution (0.05% methylene blue solution) were added followed by dyeing for 30 minutes. After washing three times with 4 mL of distilled water, 2 mL of a 3% HCl solution were added followed by measurement of the absorbance of methylene blue at 660 nm using a microplate reader (BioRad).
The experiment was conducted in triplicate and the same experiment was repeated three times. The average triplicate value of the control siRNA treatment group of the first experiment was used as a control, the cell growth rates (%) were calculated according to the following Equation (5) using the average triplicate values of the siRNA treatment group of each experiment. […]

NEK10 variant mRNA = experiment: Expression inhibitory effect on NEK10 variant mRNA (real-time PCR using SYBR Green after siRNA transfection); assay type: cell-based, human; settings: breast cancer cell line MDA-MB-231; siRNA (20 nM) with Lipofectamine RNAiMAX; 72 hours culture after transfection; first control siRNA treatment group = 100
Source text: After carrying out siRNA treatment by transfecting cells with siRNA consisting of the combination of sense RNA consisting of the base sequence represented by SEQ ID NO: 2 and antisense RNA consisting of the base sequence represented by SEQ ID NO: 3 (to be referred to as NEK10 siRNA #1) and siRNA consisting of the combination of sense RNA consisting of the base sequence represented by SEQ ID NO: 4 and antisense RNA consisting of the base sequence represented by SEQ ID NO: 5 (to be referred to as NEK10 siRNA #2), NEK10 variant mRNA was measured by real-time PCR using SYBR™ Green to study the knockdown effects on NEK10 variant mRNA.
Breast cancer cell line MDA-MB-231, which was confirmed to express NEK10 variant mRNA in Example 1, was transfected with control siRNA, NEK10 siRNA #1 or NEK10 siRNA #2, and NEK10 variant mRNA following siRNA treatment was measured by real-time PCR using SYBR™ Green to study the knockdown effects on NEK10 variant mRNA of each siRNA. The control siRNA was purchased from Invitrogen, and siRNA synthesized by Invitrogen was used for NEK10 siRNA #1 and NEK10 siRNA #2. […]
Using 500 ng of the purified RNA, cDNA was prepared in the same manner as Reference Example 1 using the reverse transcriptase Superscript III (Invitrogen). Ct values were measured in the same manner as Reference Example 1 using 1 μL of the resulting cDNA as template. […]

Substance	cell growth rate (MDA-MB-231 cells)	percentage of NEK10 mRNA versus the control (NEK10 variant mRNA)
NEK10 siRNA #1: siRNA of sense RNA SEQ ID NO: 2 (5'-GAAAUCCUGUCAGAUGAUAACUUCA-3') and antisense RNA SEQ ID NO: 3 (antisense UGAAGUUAUCAUCUGACAGGAUUUC; RNA, backbone not given here)	34±14%	11±0.5%
NEK10 siRNA #2: siRNA of sense RNA SEQ ID NO: 4 (5'-UCUGCCUUGUUUGUUCACCACUAUU-3') and antisense RNA SEQ ID NO: 5 (antisense AAUAGUGGUGAACAAACAAGGCAGA; RNA, backbone not given here)	58±17%	86±7.4%
